According to US20230103554A1, “TNFa SIGNALING [sequence] TUMOR-PROMOTING INFLAMMATION THAT CAN BE TARGETED TO THERAPY” (Baylor College of Medicine, priority 2020, published 2023):

Legend:
[1] = tested on: CHLA-255 monolayer and monocytes; experiment: Adherence of CD14+ monocytes to NB monolayer; assay type: cell-based, human; conditions: CHLA-255, 10 μg/mL etanercept, four days
Procedure: Cultures were imaged at 10× magnification using Nikon DS-Fi1/Elements Software. Scale bar 50 μm. (FIG. 26B) CHLA-255 was grown to 25% confluence in 12-well tissue culture plates and overlaid with freshly isolated human monocytes. […] Non-adherent cells were gently washed with PBS before mechanical dissociation to release adherent cells. Adherent CD14+ monocytes were quantified relative to NB from samples run in triplicate. **** p<0.0001;

[2] = tested on: NB tumor cell gene expression; experiment: Eukaryotic mRNA-seq of xenograft tumors; assay type: in vivo; conditions: mouse transcripts, vs control tumors
Source text: (FIG. 17A) Tumors recovered from mice in FIG. 16 were snap frozen in OTC media, thin sectioned, and stained for murine CD31 expression (red) and DAPI counterstain (blue). Results shown are representative images from five fields of view (FOVs) per tumor, with five tumors per group. Scale bar 50 μm. (FIG. 17B) Total number of CD31+ regions per FOV with box and whisker plot showing quartiles±range (Ctrl n=15, Etan n=25). (FIG. 17C) Size of each CD31+ area quantified per FOV; shown is median CD31+ area per FOV with box and whisker plot showing quartiles±range (Ctrl n=15, Etan n=25) (FIG. 17D) Longest distance across each CD31+ area (Max Feret distance) per FOV; shown is median distance per FOV with box and whisker plot showing quartiles±range (Ctrl n=15, Etan n=25). […]
Total RNA from cell pellets was isolated using the RNeasy Micro Plus Kit (Qiagen). […] Relative changes in gene expression were calculated based on the ΔCt method using housekeeping gene GAPDH as control. […]
Eukaryotic mRNA sequencing with 30M depth and 150 paired end reads was performed by Novogene, Inc. Quality control checks on FASTQ sequencing files were performed by FastQC (v0.11.2, https://www.bioinformatics.babraham.ac.uk/projects/fastqc/). Reads were then aligned to human (GRCh38, Ensembl release version 84) or mouse (GRCm38, Ensembl release version 81) reference genomes separately by hisat2 v2.1.0(51). […]

etanercept
adherence of CD14+ monocytes to NB monolayer [1]: decreased the adherence | infiltration of erythrocytes, platelets, and neutrophils (mouse stroma gene expression) [2]: reduced infiltration of erythrocytes, platelets, and neutrophils
